According to the kinase profiling compilation of Christmann-Franck et al. (2016):

How the values were obtained:
Assay in all cases: radiometric filter-binding kinase assay
[1] = molecular target: FGFR1 (human) (UniProt P11362)
[2] = molecular target: BRSK2 (human) (UniProt Q8IWQ3)
[3] = molecular target: MAPK8 (human) (UniProt P45983)
[4] = molecular target: YES1 (human) (UniProt P07947)
[5] = molecular target: JAK2 JH1 JH2 (human) (UniProt O60674)
[6] = molecular target: SRPK1 (human) (UniProt Q96SB4)
[7] = molecular target: PIM3 (human) (UniProt Q86V86)
[8] = molecular target: CSNK2A1 (human) (UniProt P68400)
[9] = molecular target: TBK1 (human) (UniProt Q9UHD2)
[10] = molecular target: HIPK2 (human) (UniProt Q9H2X6)
[11] = molecular target: MINK1 (human) (UniProt Q8N4C8)
[12] = molecular target: CAMKK2 (human) (UniProt Q96RR4)
[13] = molecular target: CaMK1 (human) (UniProt Q14012)
[14] = molecular target: PHKG1 (human) (UniProt Q16816)
PHKG1 (human), sequence (Q16816 whole entry, looked up): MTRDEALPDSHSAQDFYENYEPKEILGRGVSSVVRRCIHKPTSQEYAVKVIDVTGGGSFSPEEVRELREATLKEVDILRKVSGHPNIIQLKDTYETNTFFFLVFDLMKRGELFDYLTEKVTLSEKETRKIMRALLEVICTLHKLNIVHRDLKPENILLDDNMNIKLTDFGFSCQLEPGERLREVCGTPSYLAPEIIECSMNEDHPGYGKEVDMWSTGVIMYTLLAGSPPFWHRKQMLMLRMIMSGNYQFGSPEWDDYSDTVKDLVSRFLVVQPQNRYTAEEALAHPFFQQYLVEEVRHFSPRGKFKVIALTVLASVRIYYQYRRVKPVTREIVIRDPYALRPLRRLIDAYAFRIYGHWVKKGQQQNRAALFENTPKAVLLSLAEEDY

[15] = molecular target: HIPK1 (human) (UniProt Q86Z02); settings: compound 10.0 µM
[16] = molecular target: DYRK3 (human) (UniProt O43781)
[17] = molecular target: MKNK1 (human) (UniProt Q9BUB5)
MKNK1 (human), sequence (Q9BUB5 whole entry, looked up): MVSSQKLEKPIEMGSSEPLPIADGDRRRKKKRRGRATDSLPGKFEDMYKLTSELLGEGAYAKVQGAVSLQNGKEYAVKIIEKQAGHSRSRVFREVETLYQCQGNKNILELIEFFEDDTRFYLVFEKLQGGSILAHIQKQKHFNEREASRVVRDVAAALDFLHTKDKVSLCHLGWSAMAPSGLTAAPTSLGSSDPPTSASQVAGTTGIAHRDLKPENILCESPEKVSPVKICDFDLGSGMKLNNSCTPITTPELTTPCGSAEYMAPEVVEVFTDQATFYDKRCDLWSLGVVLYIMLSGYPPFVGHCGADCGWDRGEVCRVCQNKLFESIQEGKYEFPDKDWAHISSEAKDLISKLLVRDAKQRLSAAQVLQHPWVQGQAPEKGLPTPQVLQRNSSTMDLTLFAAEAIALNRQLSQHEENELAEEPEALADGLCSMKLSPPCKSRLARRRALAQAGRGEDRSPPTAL

[18] = molecular target: EPHB2 (human) (UniProt P29323)
[19] = molecular target: MAPK10 (human) (UniProt P53779)
[20] = molecular target: CHEK1 (human) (UniProt O14757)
CHEK1 (human), sequence (O14757 whole entry, looked up): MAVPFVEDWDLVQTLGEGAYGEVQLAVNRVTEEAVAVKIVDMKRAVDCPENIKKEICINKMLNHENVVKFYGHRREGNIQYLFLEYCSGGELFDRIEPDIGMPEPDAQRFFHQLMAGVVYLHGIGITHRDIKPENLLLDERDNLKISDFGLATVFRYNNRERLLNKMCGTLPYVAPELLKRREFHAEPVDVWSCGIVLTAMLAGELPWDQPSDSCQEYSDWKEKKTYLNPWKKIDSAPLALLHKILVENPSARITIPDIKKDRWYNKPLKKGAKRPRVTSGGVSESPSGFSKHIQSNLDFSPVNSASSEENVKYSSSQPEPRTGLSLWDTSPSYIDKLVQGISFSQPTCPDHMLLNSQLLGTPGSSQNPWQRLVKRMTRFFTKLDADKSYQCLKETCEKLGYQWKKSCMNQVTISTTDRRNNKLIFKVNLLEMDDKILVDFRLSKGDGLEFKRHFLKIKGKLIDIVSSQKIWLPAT

[21] = molecular target: MAPKAPK5 (human) (UniProt Q8IW41); settings: compound 10.0 µM
[22] = molecular target: CLK2 (human) (UniProt P49760)
CLK2 (human), sequence (P49760 whole entry, looked up): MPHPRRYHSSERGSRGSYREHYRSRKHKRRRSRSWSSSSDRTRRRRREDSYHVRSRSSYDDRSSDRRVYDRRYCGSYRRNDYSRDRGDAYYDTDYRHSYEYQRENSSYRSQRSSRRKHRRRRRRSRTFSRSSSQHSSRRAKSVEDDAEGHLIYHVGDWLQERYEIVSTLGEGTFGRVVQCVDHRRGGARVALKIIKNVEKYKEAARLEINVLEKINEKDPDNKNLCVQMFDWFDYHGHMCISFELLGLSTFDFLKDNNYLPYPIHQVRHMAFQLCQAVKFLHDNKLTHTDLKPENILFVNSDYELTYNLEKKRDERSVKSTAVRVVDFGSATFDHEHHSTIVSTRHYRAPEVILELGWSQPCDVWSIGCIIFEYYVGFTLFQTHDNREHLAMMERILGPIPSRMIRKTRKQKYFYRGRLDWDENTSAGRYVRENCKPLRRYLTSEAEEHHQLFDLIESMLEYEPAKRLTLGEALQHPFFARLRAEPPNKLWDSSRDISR

[23] = molecular target: IGF1R (human) (UniProt P08069)
[24] = system: LCK (mouse); settings: compound 10.0 µM; accession and sequence are those of the human protein
[25] = system: PAK2 (human), Q13177 [T402E]
PAK2 (human), Q13177 [T402E], sequence (Q13177 whole entry T402E, looked up): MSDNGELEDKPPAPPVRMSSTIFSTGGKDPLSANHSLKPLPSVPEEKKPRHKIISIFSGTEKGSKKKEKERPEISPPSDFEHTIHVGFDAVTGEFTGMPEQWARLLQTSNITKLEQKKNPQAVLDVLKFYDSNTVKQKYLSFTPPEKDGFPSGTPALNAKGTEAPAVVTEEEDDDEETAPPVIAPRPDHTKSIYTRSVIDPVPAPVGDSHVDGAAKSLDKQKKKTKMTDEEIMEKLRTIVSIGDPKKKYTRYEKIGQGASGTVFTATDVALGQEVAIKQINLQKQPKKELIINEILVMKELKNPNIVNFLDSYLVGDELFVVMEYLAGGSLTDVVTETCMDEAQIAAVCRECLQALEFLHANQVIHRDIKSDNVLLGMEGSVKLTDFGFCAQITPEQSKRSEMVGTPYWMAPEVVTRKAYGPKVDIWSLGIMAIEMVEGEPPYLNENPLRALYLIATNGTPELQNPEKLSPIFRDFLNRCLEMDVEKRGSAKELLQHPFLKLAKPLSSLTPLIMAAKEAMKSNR

[26] = molecular target: DYRK1A (human) (UniProt Q13627)
[27] = molecular target: MAPK11 (human) (UniProt Q15759)
MAPK11 (human), sequence (Q15759 whole entry, looked up): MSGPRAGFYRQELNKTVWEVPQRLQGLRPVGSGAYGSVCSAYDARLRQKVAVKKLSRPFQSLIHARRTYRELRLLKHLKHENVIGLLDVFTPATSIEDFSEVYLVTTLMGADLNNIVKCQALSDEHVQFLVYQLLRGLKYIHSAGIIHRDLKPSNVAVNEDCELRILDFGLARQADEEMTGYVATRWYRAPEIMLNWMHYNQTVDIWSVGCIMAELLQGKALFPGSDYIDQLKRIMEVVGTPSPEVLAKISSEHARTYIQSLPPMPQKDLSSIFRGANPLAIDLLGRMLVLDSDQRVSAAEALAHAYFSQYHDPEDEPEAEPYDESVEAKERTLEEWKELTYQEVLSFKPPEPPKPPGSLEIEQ

[28] = molecular target: STK3 (human) (UniProt Q13188)
[29] = molecular target: DAPK1 (human) (UniProt P53355)
DAPK1 (human), sequence (P53355 whole entry, looked up): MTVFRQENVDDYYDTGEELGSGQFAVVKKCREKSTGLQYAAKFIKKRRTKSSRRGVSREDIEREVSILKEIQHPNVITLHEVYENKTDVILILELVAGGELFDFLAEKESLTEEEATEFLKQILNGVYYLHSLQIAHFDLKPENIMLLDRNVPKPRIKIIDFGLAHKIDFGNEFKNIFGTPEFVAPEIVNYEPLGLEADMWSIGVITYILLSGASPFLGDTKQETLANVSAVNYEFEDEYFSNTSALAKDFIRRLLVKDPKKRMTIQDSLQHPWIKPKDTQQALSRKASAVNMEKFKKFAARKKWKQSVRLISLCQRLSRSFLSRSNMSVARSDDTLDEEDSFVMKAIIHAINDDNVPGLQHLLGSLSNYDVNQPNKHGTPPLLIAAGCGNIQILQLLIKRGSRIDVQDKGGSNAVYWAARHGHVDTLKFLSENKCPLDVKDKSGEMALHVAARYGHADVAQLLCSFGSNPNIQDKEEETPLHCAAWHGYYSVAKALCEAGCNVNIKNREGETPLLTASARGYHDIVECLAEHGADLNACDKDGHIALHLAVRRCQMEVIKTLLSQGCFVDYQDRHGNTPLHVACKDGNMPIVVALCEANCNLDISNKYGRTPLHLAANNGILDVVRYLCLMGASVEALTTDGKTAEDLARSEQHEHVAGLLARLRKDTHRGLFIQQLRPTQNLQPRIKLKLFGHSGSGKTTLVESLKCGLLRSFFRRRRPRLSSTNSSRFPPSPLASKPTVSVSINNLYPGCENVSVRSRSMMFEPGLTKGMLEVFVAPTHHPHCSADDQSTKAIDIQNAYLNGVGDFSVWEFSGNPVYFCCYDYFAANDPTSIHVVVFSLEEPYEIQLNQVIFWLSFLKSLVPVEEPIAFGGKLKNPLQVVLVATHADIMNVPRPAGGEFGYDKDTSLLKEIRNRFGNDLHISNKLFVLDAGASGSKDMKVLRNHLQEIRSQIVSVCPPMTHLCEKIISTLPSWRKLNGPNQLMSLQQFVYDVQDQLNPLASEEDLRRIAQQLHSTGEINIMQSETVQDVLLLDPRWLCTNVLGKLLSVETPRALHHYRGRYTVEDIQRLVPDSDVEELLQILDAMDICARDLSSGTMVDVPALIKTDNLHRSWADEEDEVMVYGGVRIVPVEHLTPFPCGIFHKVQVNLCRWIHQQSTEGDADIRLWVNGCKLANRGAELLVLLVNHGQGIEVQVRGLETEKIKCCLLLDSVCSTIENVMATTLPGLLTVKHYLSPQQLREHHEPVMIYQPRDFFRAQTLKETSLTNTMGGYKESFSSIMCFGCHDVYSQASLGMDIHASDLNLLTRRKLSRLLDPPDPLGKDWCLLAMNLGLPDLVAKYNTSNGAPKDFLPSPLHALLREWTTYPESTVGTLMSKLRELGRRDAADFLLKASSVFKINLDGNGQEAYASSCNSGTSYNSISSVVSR

[30] = molecular target: MARK3 (human) (UniProt P27448)
[31] = system: SGK1 (human), O00141 [S422D]
[32] = system: ROCK2 (rat); settings: accession and sequence are those of the human protein
[33] = molecular target: MAPK13 (human) (UniProt O15264)
[34] = molecular target: AURKB (human) (UniProt Q96GD4)
AURKB (human), sequence (Q96GD4 whole entry, looked up): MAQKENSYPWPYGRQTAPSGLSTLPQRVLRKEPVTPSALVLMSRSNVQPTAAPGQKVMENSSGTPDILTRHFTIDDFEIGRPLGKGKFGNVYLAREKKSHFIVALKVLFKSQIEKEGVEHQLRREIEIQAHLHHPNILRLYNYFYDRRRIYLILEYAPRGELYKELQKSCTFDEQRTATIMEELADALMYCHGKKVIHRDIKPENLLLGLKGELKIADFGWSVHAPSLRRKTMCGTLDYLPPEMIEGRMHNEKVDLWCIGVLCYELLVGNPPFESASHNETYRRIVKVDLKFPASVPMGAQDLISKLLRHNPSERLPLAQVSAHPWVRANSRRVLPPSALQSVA

A residual activity ([1]; compound 10.0 µM) of 69%, a residual activity ([2]; compound 10.0 µM) of 90% and a residual activity ([3]; compound 10.0 µM) of 85% were found for `CC(C)C[C@H](NC(=O)CNC(=O)c1cc(Cl)ccc1Cl)B1OC(=O)CC(CC(=O)O)(C(=O)O)O1` (stereo not given in full) in this work. The residual activity ([4]; compound 10.0 µM) was 82%, the residual activity ([5]; compound 10.0 µM) was 104% and the residual activity ([6]; compound 10.0 µM) was 90%. It also gave a residual activity ([7]; compound 10.0 µM) of 92%, a residual activity ([8]; compound 10.0 µM) of 82% and a residual activity ([9]; compound 10.0 µM) of 81%. It also gave a residual activity ([10]; compound 10.0 µM) of 88%, a residual activity ([11]; compound 10.0 µM) of 73% and a residual activity ([12]; compound 10.0 µM) of 86%. For the same compound, the residual activity ([13]; compound 10.0 µM) was 80%, the residual activity ([14]; compound 10.0 µM) was 44% and the residual activity [15] was 111%. For the same compound, the residual activity ([16]; compound 10.0 µM) was 97%, the residual activity ([17]; compound 10.0 µM) was 79% and the residual activity ([18]; compound 10.0 µM) was 95%. For the same compound, the residual activity ([19]; compound 10.0 µM) was 91%, the residual activity ([20]; compound 10.0 µM) was 107% and the residual activity [21] was 92%. The residual activity ([22]; compound 10.0 µM) was 79%, the residual activity ([23]; compound 10.0 µM) was 87% and the residual activity [24] was 81%. The residual activity ([25]; compound 10.0 µM) was 92%, the residual activity ([26]; compound 10.0 µM) was 88% and the residual activity ([27]; compound 10.0 µM) was 70%. It also gave a residual activity ([28]; compound 10.0 µM) of 100%, a residual activity ([29]; compound 10.0 µM) of 88% and a residual activity ([30]; compound 10.0 µM) of 72%. The residual activity ([31]; compound 10.0 µM) was 78%, the residual activity ([32]; compound 10.0 µM) was 76% and the residual activity ([33]; compound 10.0 µM) was 98%. It also gave a residual activity ([34]; compound 10.0 µM) of 75%.
A residual activity ([1]; compound 0.1 µM) of 110%, a residual activity ([2]; compound 0.1 µM) of 96% and a residual activity ([3]; compound 0.1 µM) of 97% were found for `CN1CCN(CCOc2cc(OC3CCOCC3)c3c(Nc4c(Cl)ccc5c4OCO5)ncnc3c2)CC1` in this work. It also gave a residual activity ([4]; compound 0.1 µM) of 4%, a residual activity ([5]; compound 0.1 µM) of 102% and a residual activity ([6]; compound 0.1 µM) of 82%. It also gave a residual activity ([7]; compound 0.1 µM) of 111%, a residual activity ([8]; compound 0.1 µM) of 112% and a residual activity ([9]; compound 0.1 µM) of 103%. It also gave a residual activity ([10]; compound 0.1 µM) of 80%, a residual activity ([11]; compound 0.1 µM) of 90% and a residual activity ([12]; compound 0.1 µM) of 95%. For the same compound, the residual activity ([13]; compound 0.1 µM) was 106%, the residual activity ([14]; compound 0.1 µM) was 106% and the residual activity ([16]; compound 0.1 µM) was 114%. The residual activity ([17]; compound 0.1 µM) was 107%, the residual activity ([18]; compound 0.1 µM) was 66% and the residual activity ([19]; compound 0.1 µM) was 116%. The residual activity ([20]; compound 0.1 µM) was 106%, the residual activity ([22]; compound 0.1 µM) was 111% and the residual activity ([23]; compound 0.1 µM) was 97%. It also gave a residual activity ([25]; compound 0.1 µM) of 94%, a residual activity ([26]; compound 0.1 µM) of 94% and a residual activity ([27]; compound 0.1 µM) of 85%. The residual activity ([28]; compound 0.1 µM) was 102%, the residual activity ([29]; compound 0.1 µM) was 82% and the residual activity ([30]; compound 0.1 µM) was 99%. The residual activity ([31]; compound 0.1 µM) was 112%, the residual activity ([32]; compound 0.1 µM) was 111% and the residual activity ([33]; compound 0.1 µM) was 91%. For the same compound, the residual activity ([34]; compound 0.1 µM) was 82%.
